Data reported in patent US4472573A, “Nitrosourea derivative and process for preparing same” (Tanabe Seiyaku Co., Ltd., priority 1981, dated 1984).

How the values were obtained:
leukemic cells = conditions: Japanese Patent Publication (unexamined) No. 141815/1976; cited from earlier work
lymphoid leukemia L-1210 = conditions: U.S. Pat. No. 4,086,415; cited from earlier work
[1] = test system: Ehrlich ascites carcinoma; test: Preventive effect against the growth of Ehrlich ascites carcinoma (Method A); type: in vivo, ICR mice; conditions: for Toxicity / the number of mice died / the number of mice used / minimal effective dose / Inhibition ratio: once a day for 5 days; for Therapeutic index: MTD / MED; for minimal effective dose: Mus musculus, Ehrlich, ip, 120 h, minimum dose showing 100% inhibition, i.p., read-out: MED (Minimum Effective Dose)
Experimental: (§1) (A) Preventive Effect Against the Growth of Ehrlich Ascites Tumor
(§2) 10^6 tumor cells of Ehrlich ascites carcinoma were inoculated intraperitoneally into a group of five femal mice (ICR mice, body weight: 19-23 g). A test compound was dissolved in a physiological saline solution (In the case where CCNU was employed as the test compound, said compound was suspended in a physiological saline solution containing 0.1% NIKKOL HCO-60 (trademark; a surface active agent manufactured by Nikko Chemicals Co. Ltd.)) and administered intraperitoneally to the mice. The administration of the test compound was begun 24 hours after the inoculation of the tumor cells and performed once a day for 5 days. The volume of ascites in the treated mice were measured after 7 days of the experiment.
(§3) ^(a) T = the average volume of ascites in the treated mice
(§4) C = the average volume of ascites in the untreated mice (control group of
(§5) 100% inhibition for the growth of Ehrlich ascites tumor in mice without
(§6) 100% inhibition for the growth of said ascites tumor)
(§7) ^(e) Therapeutic index = MTD / MED
(§8) *the number of mice died / the number of mice used

[2] = as above; type: in vivo, ICR mice; conditions: mouse, in vivo, ip; maximum dose showing 100% inhibition without causing death; i.p., once a day for 5 days; read-out: MTD (Maximum Tolerated Dose)
Experimental: as §1, §2, §3, §4, §5, §6, §7, §8

Leukemia L-1210 = test: Effect on life span of mice implanted with Leukemia L-1210 (Method B); type: in vivo, BDF1 mice; conditions: once a day for 5 days; for 60-day survivors: survived for 60 days / used
Experimental: (B) Effect on the Life Span of Mice Implanted with Leukemic Cells of L-1210
10^5 leukemic cells of L-1210 were inoculated intraperitoneally into a group of four male mice (BDF1 mice, body weight: 19-23 g). A test compound was dissolved in a physiological saline solution and administered intraperitoneally to the mice. The administration of the test compound was begun 24 hours after the inoculation of the leukemic cells and performed once a day for 5 days. The survival days of the treated mice were observed.
^(a) T = the mean survival days of the treated mice
C = the mean survival days of the untreated mice (control group of mice)
^(c) 60day survivors = the number of mice survived for 60 days / the […]

Row | Compound | Toxicity ([1]; 100 mg/kg/day i.p.) | the number of mice died / the number of mice used ([1]; 100 mg/kg/day i.p.) | Therapeutic index [1] | minimal effective dose [1] | Inhibition ratio ([1]; 0.78 mg/kg/day i.p.) | MTD [2] | Inhibition ratio ([1]; 0.39 mg/kg/day i.p.) | Inhibition ratio ([1]; 3.12 mg/kg/day i.p.) | Inhibition ratio ([1]; 12.5 mg/kg/day i.p.) | Inhibition ratio ([1]; 50 mg/kg/day i.p.) | ILS (Leukemia L-1210; 12.5 mg/kg/day i.p.) | 60-day survivors (Leukemia L-1210; 12.5 mg/kg/day i.p.) | ILS (Leukemia L-1210; 25 mg/kg/day i.p.) | 60-day survivors (Leukemia L-1210; 25 mg/kg/day i.p.) | ILS (Leukemia L-1210; 50 mg/kg/day i.p.) | 60-day survivors (Leukemia L-1210; 50 mg/kg/day i.p.) | also measured
1 | O=NN(CCCl)C(=O)N[C@@H]1O[C@H](CO)[C@@H](O[C@@H]2O[C@H](CO)[C@H](O)[C@H](O)[C@H]2O)[C@H](O)[C@H]1O [1-(2-chloroethyl)-1-nitroso-3-β-(D-lactosyl)urea] | – | – | – | – | – | – | – | – | – | – | – | – | – | – | – | – | anti-tumor activity against leukemic cells (leukemic cells): show anti-tumor activity against leukemic cells
2 | O=NN(CCCl)C(=O)N[C@@H]1O[C@H](CO)[C@@H](O[C@H]2O[C@H](CO)[C@@H](O)[C@H](O)[C@H]2O)[C@H](O)[C@H]1O [1-(2-chloroethyl)-1-nitroso-3-β-(D-maltosyl)urea] | – | – | – | – | – | – | – | – | – | – | – | – | – | – | – | – | anti-tumor activity against leukemic cells (leukemic cells): show anti-tumor activity against leukemic cells
3 | O=NN(CCCl)C(=O)N[C@@H]1O[C@H](CO)[C@@H](O)[C@H](O)[C@@H]1O [1-(2-chloroethyl)-1-nitroso-3-β-(D-mannopyranosyl)urea] | – | – | – | – | – | – | – | – | – | – | – | – | – | – | – | – | life span of mice implanted with L-1210 (lymphoid leukemia L-1210): increase the life span of mice
4 | O=NN(CCCl)C(=O)NC1CCCCC1 [CCNU, 1-(2-chloroethyl)-1-nitroso-3-cyclohexylurea, reference compound] | Toxic | 5/5 | 4 | 12.5 mg/kg/day | – | – | – | – | – | – | – | – | – | – | – | – | –
5 | CCCCN(C(=O)N(CCCl)N=O)[C@H]1[C@@H](OC)O[C@H](CO)[C@@H](O)[C@@H]1O [Compound 1, 1-(2-chloroethyl)-1-nitroso-3-n-butyl-3-(methyl α-D-glucopyranosid-2-yl)urea] | – | – | 64 | 1.56 mg/kg/day | 34.1% | 100 mg/kg/day | – | – | – | – | – | – | – | – | – | – | Inhibition ratio ([1]; 1.56 mg/kg/day i.p.): 100%; Inhibition ratio ([1]; 6.25 mg/kg/day i.p.): 100%; Inhibition ratio ([1]; 25 mg/kg/day i.p.): 100%; Inhibition ratio ([1]; 100 mg/kg/day i.p.): 100%; Toxicity ([1]; 200 mg/kg/day i.p.): Toxic
6 | CCCN(C(=O)N(CCCl)N=O)[C@H]1[C@@H](OC)O[C@H](CO)[C@@H](O)[C@@H]1O [Compound 2, 1-(2-chloroethyl)-1-nitroso-3-n-propyl-3-(methyl α-D-glucopyranosid-2-yl)urea] | Toxic | 2/5 | 64 | 0.78 mg/kg/day | 100% | 50 mg/kg/day | 15.2% | 100% | 100% | 100% | > 366.3% | 2/4 | > 650.0% | 4/4 | > 650.0% | 4/4 | ILS (Leukemia L-1210; 6.25 mg/kg/day i.p.): 78.8%; 60-day survivors (Leukemia L-1210; 6.25 mg/kg/day i.p.): 0/4
7 | CO[C@H]1O[C@H](CO)[C@@H](O)[C@H](O)[C@H]1N(CC(C)C)C(=O)N(CCCl)N=O [Compound 3, 1-(2-chloroethyl)-1-nitroso-3-isobutyl-3-(methyl α-D-glucopyranosid-2-yl)urea] | Toxic | 4/5 | 64 | 0.78 mg/kg/day | 100% | 50 mg/kg/day | 45.7% | 100% | 100% | 100% | 114.9% | 0/4 | > 689.5% | 4/4 | > 689.5% | 4/4 | –
8 | COCCN(C(=O)N(CCCl)N=O)[C@H]1[C@@H](OC)O[C@H](CO)[C@@H](O)[C@@H]1O [Compound 4, 1-(2-chloroethyl)-1-nitroso-3-(2-methoxyethyl)-3-(methyl α-D-glucopyranosid-2-yl)urea] | Toxic | 3/5 | 128 | 0.39 mg/kg/day | 100% | 50 mg/kg/day | 100% | 100% | 100% | 100% | > 243.8% | 1/4 | > 650.0% | 4/4 | > 650.0% | 4/4 | Inhibition ratio ([1]; 0.19 mg/kg/day i.p.): 69.6%; ILS (Leukemia L-1210; 6.25 mg/kg/day i.p.): 93.8%; 60-day survivors (Leukemia L-1210; 6.25 mg/kg/day i.p.): 0/4
9 | CO[C@H]1O[C@H](CO)[C@@H](O)[C@H](O)[C@H]1N(C)C(=O)N(CCCl)N=O [Compound 5, 1-(2-chloroethyl)-1-nitroso-3-methyl-3-(methyl α-D-glucopyranosid-2-yl)urea] | – | – | 128 | 0.78 mg/kg/day | 100% | 100 mg/kg/day | 9.8% | – | – | – | – | – | – | – | – | – | Inhibition ratio ([1]; 1.56 mg/kg/day i.p.): 100%; Inhibition ratio ([1]; 6.25 mg/kg/day i.p.): 100%; Inhibition ratio ([1]; 25 mg/kg/day i.p.): 100%; Inhibition ratio ([1]; 100 mg/kg/day i.p.): 100%; Toxicity ([1]; 200 mg/kg/day i.p.): Toxic; the number of mice died / the number of mice used ([1]; 200 mg/kg/day i.p.): 5/5
10 | O=NN(CCCl)C(=O)N[C@@H]1O[C@H](CO)[C@@H](O)[C@H](O)[C@H]1O [GANU, 1-(2-chloroethyl)-1-nitroso-3-(β-D-glucopyranosyl)urea, reference compound] | – | – | 32 | 0.39 mg/kg/day | – | 12.5 mg/kg/day | – | – | 100% | – | – | – | – | – | – | – | life span of mice implanted with L-1210 (lymphoid leukemia L-1210): increase the life span of mice; Toxicity ([1]; 25 mg/kg/day i.p.): Toxic; the number of mice died / the number of mice used ([1]; 25 mg/kg/day i.p.): 5/5
